Values belong to the compound of their own block, whether it stands above or below them.
Legend:
[1] = target: T1, purinergic receptor subtype 7 (P2×7) (Mus musculus, UniProt Q9Z1M0); details: LPS 5 mg/kg; cited from earlier work
T1 construct: host or cells: mouse brain in vivo, LPS 5 mg/kg
T1 sequence (Q9Z1M0 1-595): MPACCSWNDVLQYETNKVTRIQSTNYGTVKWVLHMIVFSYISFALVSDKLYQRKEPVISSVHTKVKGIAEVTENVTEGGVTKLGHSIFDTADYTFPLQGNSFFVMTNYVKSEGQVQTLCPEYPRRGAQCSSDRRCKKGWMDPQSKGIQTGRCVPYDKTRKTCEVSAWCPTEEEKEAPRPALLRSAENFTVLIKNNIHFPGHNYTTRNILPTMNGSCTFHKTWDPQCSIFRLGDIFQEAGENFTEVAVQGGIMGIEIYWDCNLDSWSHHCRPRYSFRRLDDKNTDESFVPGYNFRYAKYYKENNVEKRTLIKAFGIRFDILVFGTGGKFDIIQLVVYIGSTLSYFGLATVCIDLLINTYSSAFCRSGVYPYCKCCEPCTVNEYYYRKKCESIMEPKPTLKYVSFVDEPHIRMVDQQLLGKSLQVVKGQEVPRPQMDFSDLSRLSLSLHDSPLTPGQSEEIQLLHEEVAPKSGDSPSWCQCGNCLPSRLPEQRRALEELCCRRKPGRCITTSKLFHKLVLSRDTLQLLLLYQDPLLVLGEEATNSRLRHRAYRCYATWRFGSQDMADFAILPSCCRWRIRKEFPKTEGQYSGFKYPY

[2] = target: T2, synaptic vesicle glycoprotein 2A receptor (Mus musculus, UniProt Q9JIS5); details: cited from earlier work
T2 construct: host or cells: healthy mouse brain in vivo
T2 sequence (Q9JIS5 whole entry): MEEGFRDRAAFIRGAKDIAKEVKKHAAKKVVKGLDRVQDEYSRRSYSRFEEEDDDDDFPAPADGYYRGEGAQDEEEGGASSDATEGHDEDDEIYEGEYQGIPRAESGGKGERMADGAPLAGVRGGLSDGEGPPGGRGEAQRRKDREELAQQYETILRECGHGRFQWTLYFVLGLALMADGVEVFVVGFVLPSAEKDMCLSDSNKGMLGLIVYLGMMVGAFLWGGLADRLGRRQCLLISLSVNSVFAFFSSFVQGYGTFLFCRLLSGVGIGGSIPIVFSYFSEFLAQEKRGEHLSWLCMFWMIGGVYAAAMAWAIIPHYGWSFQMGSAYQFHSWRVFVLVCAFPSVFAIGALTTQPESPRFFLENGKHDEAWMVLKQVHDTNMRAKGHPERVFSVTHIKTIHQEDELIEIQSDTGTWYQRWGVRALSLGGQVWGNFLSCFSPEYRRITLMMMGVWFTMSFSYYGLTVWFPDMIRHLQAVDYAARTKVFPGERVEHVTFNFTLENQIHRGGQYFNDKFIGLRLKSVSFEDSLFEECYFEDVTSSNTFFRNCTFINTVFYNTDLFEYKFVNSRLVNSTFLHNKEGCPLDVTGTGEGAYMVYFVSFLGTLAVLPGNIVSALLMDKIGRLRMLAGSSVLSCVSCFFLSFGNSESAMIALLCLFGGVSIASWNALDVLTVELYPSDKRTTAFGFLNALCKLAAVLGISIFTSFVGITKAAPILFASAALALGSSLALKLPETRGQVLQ

[3] = Method: In vivo stability assay. […] Mice were perfused with PBS buffer (20 mL) under deep anesthesia (5 min, 20 min). The whole brain and liver lobe were removed from mouse place in two separate […] microcentrifuge tubes containing 500 μL acetonitrile, homogenized sample and placed on ice. The well-homogenized samples were transferred to two 1.5 mL microcentrifuge tubes, centrifuged at 9,400 g for 4 min at room temperature. Supernatants were transferred into gamma counting tubes; the pellets were transferred into separate tubes. All supernatants and pellets were counted using gamma counter to measure extraction efficiency. Each of the supernatant (150-200 μL) was transferred into HPLC vials with the inserts and injected into HPLC for radio-metabolic analysis.
At 5 and 20 min post-tracer injection, the analysis of the whole brain and liver was performed using analytical HPLC to assess the presence of potential radiometabolites.

GPR84 [4] = target: T3, GPR84 (Mus musculus, UniProt Q8CIM5); assay: Ex vivo biodistribution (gamma counting) of GPR84 tracer in LPS- vs saline-treated mice; details: 20 min post injection
T3 construct: tissue Jackson Laboratories; host or cells: female C57BL/6J mice (LPS, saline, EAE or naive): brain, spinal cord and peripheral organs
T3 sequence (Q8CIM5 whole entry): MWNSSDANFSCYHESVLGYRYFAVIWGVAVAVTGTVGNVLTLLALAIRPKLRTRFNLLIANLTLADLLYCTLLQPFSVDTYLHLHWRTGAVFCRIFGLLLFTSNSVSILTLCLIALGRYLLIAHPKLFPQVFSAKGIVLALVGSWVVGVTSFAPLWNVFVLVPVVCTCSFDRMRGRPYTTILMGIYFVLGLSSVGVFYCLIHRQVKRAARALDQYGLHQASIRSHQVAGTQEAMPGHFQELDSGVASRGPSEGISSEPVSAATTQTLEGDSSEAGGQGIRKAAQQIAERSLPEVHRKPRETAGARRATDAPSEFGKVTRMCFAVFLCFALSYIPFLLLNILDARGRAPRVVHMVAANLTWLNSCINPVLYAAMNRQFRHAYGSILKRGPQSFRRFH
Method: FIGS. 11A-11B show ex vivo biodistribution and autoradiography. […] At 20 min postinjection, animals were perfused with saline and tissues were collected, weighed, and gamma-counted. […] Statistical analysis was performed using “Unpaired t test with Welch correction”, *=P<0.05. […] Cb=cerebellum, Ctx=cortex, Str=striatum, H=hippocampus, Mb=midbrain, Ob=olfactory bulb, and BS=brain stem.
(§1) To determine KD of GLPG38, a competitive binding assay was performed using a membrane preparation from cells expressing GPR84-Gi in addition to [^3H]G9543, a known GPR84 antagonist. [^11C]GLPG38 was then radiosynthesized via [^11C]methylation of desmethyl precursor using [^11C]methyl iodide. […] Dynamic 60 min PET/CT imaging was performed 24 hr following LPS-administration using [^11C]GLPG38. Subsequently, mice were perfused with PBS to remove blood, and radioactive signal was assessed in CNS and peripheral tissues via gamma counting. Ex vivo autoradiography of sagittal mouse brain sections was conducted to obtain high resolution images of [^11C]GLPG38 binding. To investigate alterations in GPR84 mRNA expression, quantitative polymerase-chain reaction was performed using mouse brain tissue and human monocyte-derived macrophage cells stimulated with LPS 24 hr prior to RNA extraction.

[5] = Dynamic 60 min PET/CT of healthy mice, whole-brain time activity curve; format: in vivo, mouse; details: healthy mice
From the text: A transmission scan was acquired to correct for attenuation during image reconstruction. Following PET imaging, mice were transferred to a SOFIE GNEXT PET/CT for CT acquisition. PET/CT data were co-registered and analyzed using Inveon Research Workplace software to generate images and quantify radiotracer uptake in regions of interest (ROIs). A 3D ROI was manually defined for the whole brain using CT data as anatomical reference, then applied to the full dynamic data set to generate a time activity curve (TAC).
(§2) The count densities were averaged for all volumes of interest at each time point to obtain a time-activity curve (TAC). The TACs were normalized to injected dose, as measured by a CRC-15 PET dose calibrator (Capintec Inc.), and expressed as % injected dose per gram (% ID/g), assuming 1 g/mL. CT was performed in GNEXT depth of interaction (DOI) dual-layer detector system. Scintica VivoQuant software was used to visualize radiotracer uptake and define the 3D volumes of interest. 3D maximum intensity projection (MIP) PET/CT images were created using IRW software.
On days 15-16 after EAE induction, mice were catheterized and placed on the 4-mouse scanning bed of the Sofie GNEXT PET/CT scanner.

GPR84 [6] = target: T3, GPR84; assay: Ex vivo autoradiography of brain sections from LPS-treated mice; format: in vivo; details: GLPG1205 5 mg/kg ([11C]GLPG38) or 1 mg/kg (11C-MGX-10S)
Method: (§3) To determine KD of GLPG38, a competitive binding assay was performed using a membrane preparation from cells expressing GPR84-Gi in addition to [^3H]G9543, a known GPR84 antagonist. [^11C]GLPG38 was then radiosynthesized via [^11C]methylation of desmethyl precursor using [^11C]methyl iodide. Binding specificity of [^11C]GLPG38 was assessed using human GPR84-stably-expressing human embryonic kidney cells (HEK-293) versus control HEK-293 cells. For animal studies, sepsis was induced in female C57BL/6J mice via intraperitoneal injection of lipopolysaccharide (LPS, 10 mg/kg); vehicle-treated mice were injected with saline alone. Dynamic 60 min PET/CT imaging was performed 24 hr following LPS-administration using [^11C]GLPG38. Subsequently, mice were perfused with PBS to remove blood, and radioactive signal was assessed in CNS and peripheral tissues via gamma counting. Ex vivo autoradiography of sagittal mouse brain sections was conducted to obtain high resolution images of [^11C]GLPG38 binding. To investigate alterations in GPR84 mRNA expression, quantitative polymerase-chain reaction was performed using mouse brain tissue and human monocyte-derived macrophage cells stimulated with LPS 24 hr prior to RNA extraction.
Ex vivo Audoradiography Confirms ^11C-MGX-10S Specificity.

GPR84 [7] = target: T3, GPR84; assay: Dynamic PET/CT of brain in LPS-induced systemic inflammation vs saline, with or without GLPG1205 block; format: in vivo; details: LPS 5 mg/kg
Method: as §1, §2
A range of doses (0.65, 0.75, and 0.90 mg/kg) of GLPG1205 were used to investigate whether the blocking was dose-dependent. […] GLPG1205 was injected intra-venously 10 min prior to radiotracer injection (n=4).

CSF1R = target: T4, CSF1R (Mus musculus, UniProt P09581); details: LPS 10 mg/kg; cited from earlier work
T4 construct: host or cells: mouse brain in vivo, LPS 10 mg/kg
T4 sequence (P09581 20-977): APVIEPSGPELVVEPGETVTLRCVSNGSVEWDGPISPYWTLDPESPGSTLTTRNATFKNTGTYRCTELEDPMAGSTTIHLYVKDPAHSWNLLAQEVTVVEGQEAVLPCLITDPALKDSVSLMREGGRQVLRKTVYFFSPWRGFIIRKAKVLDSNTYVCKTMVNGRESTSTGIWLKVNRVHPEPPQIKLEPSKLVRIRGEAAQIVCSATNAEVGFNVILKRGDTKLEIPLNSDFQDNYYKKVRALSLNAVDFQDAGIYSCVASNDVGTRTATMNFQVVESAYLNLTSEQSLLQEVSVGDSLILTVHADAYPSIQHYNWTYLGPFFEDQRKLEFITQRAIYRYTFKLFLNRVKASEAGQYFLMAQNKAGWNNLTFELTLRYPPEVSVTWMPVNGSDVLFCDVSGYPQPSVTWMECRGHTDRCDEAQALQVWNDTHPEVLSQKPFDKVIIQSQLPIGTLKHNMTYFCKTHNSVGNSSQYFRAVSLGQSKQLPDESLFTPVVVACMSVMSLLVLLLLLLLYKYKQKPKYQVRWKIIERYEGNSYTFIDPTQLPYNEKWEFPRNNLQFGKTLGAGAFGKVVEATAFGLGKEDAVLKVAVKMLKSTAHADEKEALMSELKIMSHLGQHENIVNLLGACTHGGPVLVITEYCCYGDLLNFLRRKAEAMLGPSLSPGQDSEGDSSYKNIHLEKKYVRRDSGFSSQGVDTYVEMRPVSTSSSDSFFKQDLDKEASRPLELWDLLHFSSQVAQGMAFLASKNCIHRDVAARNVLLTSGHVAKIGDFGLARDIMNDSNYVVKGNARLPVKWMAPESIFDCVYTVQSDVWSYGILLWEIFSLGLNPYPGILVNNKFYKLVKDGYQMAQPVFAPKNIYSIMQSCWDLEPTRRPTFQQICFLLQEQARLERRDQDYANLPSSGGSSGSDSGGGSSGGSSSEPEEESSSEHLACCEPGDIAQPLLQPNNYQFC

[8] = target: T5, postsynaptic dopamine D2 receptors (Rattus norvegicus, UniProt P61169); details: healthy rodents; cited from earlier work
T5 construct: host or cells: healthy rodent brain in vivo
T5 sequence (P61169 whole entry): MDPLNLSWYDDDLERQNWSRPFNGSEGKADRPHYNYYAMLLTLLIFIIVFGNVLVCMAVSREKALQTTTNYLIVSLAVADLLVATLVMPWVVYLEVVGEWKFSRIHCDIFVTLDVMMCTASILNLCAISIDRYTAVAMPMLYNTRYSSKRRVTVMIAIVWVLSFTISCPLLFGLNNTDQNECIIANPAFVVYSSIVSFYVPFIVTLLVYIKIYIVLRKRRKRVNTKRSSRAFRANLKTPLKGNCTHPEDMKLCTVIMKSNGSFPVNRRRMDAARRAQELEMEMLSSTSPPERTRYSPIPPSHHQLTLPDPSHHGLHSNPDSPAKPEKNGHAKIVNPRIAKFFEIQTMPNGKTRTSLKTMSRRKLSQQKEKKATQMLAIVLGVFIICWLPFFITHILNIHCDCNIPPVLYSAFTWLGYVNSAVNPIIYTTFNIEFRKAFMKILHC

[9] = target: human GPR84-Gαi2 fusion protein (Homo sapiens, UniProt Q9NQS5); assay: [3H]G9543 competition binding assay, membranes from Flp-In TREx 293 cells; details: competition with [3H]G9543; read-out: Kd (affinity for GPR84)
Chain of human GPR84-Gαi2 fusion protein (Q9NQS5 whole entry, the tested form may be a part): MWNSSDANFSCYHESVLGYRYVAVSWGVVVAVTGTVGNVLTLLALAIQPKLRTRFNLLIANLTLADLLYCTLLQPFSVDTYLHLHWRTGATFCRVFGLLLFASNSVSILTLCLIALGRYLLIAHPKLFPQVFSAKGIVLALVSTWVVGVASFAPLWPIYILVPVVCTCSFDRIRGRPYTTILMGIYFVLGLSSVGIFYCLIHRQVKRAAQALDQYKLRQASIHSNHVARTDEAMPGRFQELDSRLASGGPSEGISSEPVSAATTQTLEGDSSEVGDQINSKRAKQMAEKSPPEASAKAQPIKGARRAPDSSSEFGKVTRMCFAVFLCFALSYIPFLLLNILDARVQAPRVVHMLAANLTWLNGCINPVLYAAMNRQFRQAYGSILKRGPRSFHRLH
Method: as §3, with “Binding specificity of [^11C]GLPG38 was assessed using human GPR84-stably-expressing human embryonic kidney cells (HEK-293) versus control HEK-293 cells.” left out

SMILES: [11CH3]N1C(=O)CC[C@H]1C(=O)NCc1cccc(C(F)(F)F)c1Cl [^11C-GSK1482160]
fold higher binding in brain, LPS vs saline-treated mice [1]: 3.2 fold

SMILES: [11CH3]c1cnccc1CN1C[C@@H](c2cc(F)c(F)c(F)c2)CC1=O [^11C-UCBJ]
Brain 15 min/90 min ratio ([2]; healthy mouse brain): ~3
time of maximum brain uptake ([2]; healthy mouse): 15 min

SMILES: [11CH3]Oc1ccc2c(c1)CCn1c-2cc(OC[C@@H]2COCCO2)nc1=O [^11C-MGX-10S]
radiometabolite M1 in brain at 20 min post injection ([3]; HPLC): 3%
radiometabolite M1 in liver at 20 min post injection ([3]; HPLC): 10%
intact radiotracer in liver at 20 min post injection ([3]; LPS-treated mice): 90%
intact radiotracer in liver, initial (5 min) ([3]; LPS-treated mice): 100%
intact radiotracer in brain at 5 min post injection ([3]; LPS-treated mice, n=3): 100%
intact radiotracer in brain at 20 min post injection ([3]; LPS-treated mice, n=3): 97%
adipose tissue uptake, saline-treated mice (GPR84 [4]): 0.63±0.15 % ID/g
kidney uptake, saline-treated mice (GPR84 [4]): 5.32±3.01 % ID/gram
liver uptake, saline-treated mice (GPR84 [4]): 4.51±0.15 % ID/gram
brain uptake, saline-treated mice (GPR84 [4]; perfused): 0.45±0.06 % ID/g
adipose tissue uptake, LPS-treated mice (GPR84 [4]; LPS 5 mg/kg): 1.16±0.50 % ID/g
kidney uptake, LPS-treated mice (GPR84 [4]; LPS 5 mg/kg): 8.73±3.18 % ID/gram
liver uptake, LPS-treated mice (GPR84 [4]; LPS 5 mg/kg): 7.08±1.27 % ID/gram
brain uptake, LPS-treated mice (GPR84 [4]; LPS 5 mg/kg, perfused): 0.84±0.21 % ID/gram
time of peak brain uptake [5]: ≤ 22.5 s
whole-brain uptake after washout, end of 60 min scan [5]: 1.89±0.35 % ID/g
peak whole-brain uptake ([5]; 60 min dynamic scan): 5.90±0.89 % ID/g
tracer binding in LPS brain sections after pre-blocking with GLPG1205 (GPR84 [6]): dramatic reduction
reduction of brain PET signal in LPS mice by GLPG1205 at end of scan (GPR84 [7]; GLPG1205 0.65 mg/kg i.v. 10 min before tracer): 38.50%
increase in whole-brain radiotracer uptake, LPS vs saline, 30-60 min integration (GPR84 [7]): approximately 39.27%
higher brain accumulation in LPS vs saline-treated mice at end of scan (GPR84 [7]; 60 min dynamic PET): 42.46%

SMILES: CN1CCN(c2ccc(NC(=O)c3ccc(C#N)o3)c(N3CCCCC3)c2)CC1 [^11C-CPPC, [11C]5-Cyano-N-(4-(4-Methylpiperazin-1-YI)-2-(Piperidin-1-YI)Phenyl)Furan-2-Carboxamide]
higher binding in mouse brain, LPS vs control animal (CSF1R): 55%

SMILES: CCN1CCC[C@H]1CNC(=O)c1c(O)c(Cl)cc(Cl)c1O[11CH3] (racemic) [^11C-Raclopride]
Brain 5 min/60 min ratio [8]: ~2
time of maximum brain uptake [8]: 5 min

Kd [9]: 0.0118 µM
SMILES: COc1cc2c(cc1C)-c1c(C)c(OC[C@@H]3COCCO3)cc(=O)n1CC2 [GLPG38]
